Three molecules from paper PMC8153426, “EfgA is a conserved formaldehyde sensor that leads to bacterial growth arrest in response to elevated formaldehyde” (PLoS Biology, 2021) can be followed below.

In data set [1] the target is T1, EfgA (Methylorubrum extorquens, UniProt P0DX96).
T1 construct: N-terminal His-tagged EfgA, homotetramer
Description: X-ray crystal structure of formaldehyde-soaked crystals, […] Å. It counts as binding.

Data set [2] has as its target T2, EfgA (Methylorubrum extorquens, UniProt P0DX96).
T2 construct: recombinant EfgA with C-terminal 6X-His tag
T2 sequence (P0DX96 1-144): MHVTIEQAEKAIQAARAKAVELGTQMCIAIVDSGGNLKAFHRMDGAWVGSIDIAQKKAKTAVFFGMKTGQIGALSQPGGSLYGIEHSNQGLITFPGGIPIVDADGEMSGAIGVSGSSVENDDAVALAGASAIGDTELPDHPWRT
The data set can be described thus: microscale thermophoresis (Kd), confirmed by mITC. The data set is classed as binding. An excerpt: microscale thermophoresis (Kd), confirmed by mITC on EfgA | MST was used to both independently confirm the interaction of EfgA with formaldehyde and permit calculation of its affinity
(In general: MST reads how a fluorescent partner responds to local heating, with and without ligand.)

Data set [3] deals with the molecule itself. Description: crystal structure; apo EfgA crystals (0.2 M potassium fluoride, 2.2 M ammonium sulfate, 10°C) and crystals with 16.6 mM formaldehyde (0.2 M KNO3, 2.2 M ammonium sulfate, 10°C); 4 molecules per asymmetric unit.

For `OCOCO` [oxydimethanol], the “X-ray crystal structure of formaldehyde-soaked crystals, 1.83 Å” value in data set [1] is given as “In three EfgA monomers, new densities were modeled as oxydimethanol”. `C=O` [formaldehyde] came in with a Kd in data set [2] of 8.01 ± 3.5 mM.

B1: EfgA (Mext_4158, DUF336 protein) from Methylorubrum extorquens PA1, N-terminal His-tagged derivative (natural protein)
chain: T2 sequence (P0DX96 1-144)
notes: EfgA, product of Mext_4158 of Methylorubrum extorquens PA1; single-domain 144 amino acid protein with a DUF336 domain; Residue numbers S114, D121, K57 are said to correspond to the native EfgA protein; The simulations count 134 EfgA residues in the structure against 144 in the gene product; also called EfgA^WT; enhanced formaldehyde growth protein A; not shown: His6 (thrombin cleavable), …
Take B1: the “stoichiometry N” value in data set [3] was determined as 4.

By Kd is commonly meant the equilibrium constant for the complex coming apart. For orientation: stoichiometry N means the number of molecules, sites or subunits per partner or assembly.
